Among the data in PubChem BioAssay AID1259408 (Genetic Toxicology Data Bank (GENE-TOX), 2018) are mutagenic call and call values, retold here.

Molecules are shown by their SMILES. Active and inactive are the calls of the source. How the calls were made is not given here.

This data set relates to GENE-TOX genotoxicity assays, various organisms and cells. Put plainly: GENE-TOX mutagenicity studies. Particulars: for call: Assay Type: In vivo carcinogenicity studies.
Setting [1] is: Species/Cell Type: Salmonella typhimurium (one or more of the five standard strains: TA98, TA100, TA1535, TA1537, and TA1538), Assay Type: Histidine reverse gene mutation, Ames assay, Assay Code: SAL+*, Activation: With metabolic activation, Evaluation Type: Evaluation A (Pre-1980).
Setting [2] is: Species/Cell Type: Escherichia coli polA (W3119 vs P3478), Assay Type: Rec-assay, DNA effects (bacterial DNA repair), Assay Code: RE1+, Evaluation Type: Evaluation A (Pre-1980).
[3] abbreviates: Species/Cell Type: Salmonella typhimurium (one or more of the five standard strains: TA98, TA100, TA1535, TA1537, and TA1538), Assay Type: Histidine reverse gene mutation, Ames assay, Assay Code: SAL+, Evaluation Type: Evaluation A (Pre-1980).
Setting [4] is: Species/Cell Type: Nonhuman, Assay Type: Sister-chromatid exchange (SCE) in vitro, Assay Code: SC2+D, Dose Response: With dose response, Evaluation Type: Evaluation B (Post-1980).
Setting [5] is: Species/Cell Type: Human lymphocytes, Assay Type: Sister-chromatid exchange (SCE) in vitro, Assay Code: SCLT, Evaluation Type: Evaluation B (Post-1980).
The mark [6] stands for this setting: Species/Cell Type: Human, Assay Type: Sister-chromatid exchange (SCE) in vitro, Assay Code: SC1+D, Dose Response: With dose response, Evaluation Type: Evaluation B (Post-1980).
Setting [7] is: Species/Cell Type: Human, Assay Type: Sister-chromatid exchange (SCE) in vitro, Assay Code: SC1T, Evaluation Type: Evaluation B (Post-1980).
The mark [8] stands for this setting: Species/Cell Type: Nonhuman, Assay Type: Sister-chromatid exchange (SCE) in vitro, Assay Code: SC2+D*, Activation: With metabolic activation, Dose Response: With dose response, Evaluation Type: Evaluation B (Post-1980).

`O=C(O)c1ccccc1`: the mutagenic call (Species/Cell Type: Escherichia coli WP2, Assay Type: Tryptophan reverse gene mutation, Assay Code: WP2-*, Activation: With metabolic activation, Evaluation Type: Evaluation A (Pre-1980)) was “inactive; negative”; the mutagenic call (Species/Cell Type: Escherichia coli WP2 UVRA, Assay Type: Tryptophan reverse gene mutation, Assay Code: WPU-*, Activation: With metabolic activation, Evaluation Type: Evaluation A (Pre-1980)) is “inactive; negative”; the mutagenic call (Species/Cell Type: Human, Assay Type: Sister-chromatid exchange (SCE) in vitro, Assay Code: SC1+, Evaluation Type: Evaluation B (Post-1980)) was “active; positive”; the mutagenic call (Species/Cell Type: Saccharomyces cerevisiae, Assay Type: Mitotic recombination or gene conversion, Assay Code: YEH-, Evaluation Type: Evaluation A (Pre-1980)) is “inactive; negative”; the mutagenic call (Species/Cell Type: Salmonella typhimurium (one or more of the five standard strains: TA98, TA100, TA1535, TA1537, and TA1538), Assay Type: Histidine reverse gene mutation, Ames assay, Assay Code: SAL-, Evaluation Type: Evaluation A (Pre-1980)) is “inactive; negative”. `OC1C=Cc2cc3ccc4cccc5ccc(c2C1O)c3c45` (stereo unspecified): the mutagenic call (Species/Cell Type: Mouse prostate cells, Assay Type: Cell transformation, Assay Code: CTM+, Evaluation Type: Evaluation A (Pre-1980)) is “active; positive”. As to `c1ccc2c(c1)cc1ccc3cc4ccccc4c4ccc2c1c34`, the call (Species/Cell Type: Nonhuman, Assay Code: CCG+, Evaluation Type: Evaluation A (Pre-1980)) was “active; positive”. The mutagenic call under setting [1] is “active; positive”. Consider `Cc1c([N+](=O)[O-])cc[n+]([O-])c1C`, for which the mutagenic call under setting [2] was “active; positive”. With `CN(C)C(=O)Nc1ccc(Oc2ccc(Cl)cc2)cc1`, the mutagenic call (Species/Cell Type: Saccharomyces cerevisiae, Assay Type: Mitotic recombination or gene conversion, Assay Code: YEC-, Evaluation Type: Evaluation A (Pre-1980)) is “inactive; negative”. With `CCCN(CCC)C(=O)SCC` (tested in a mixture with another compound), the mutagenic call (Species/Cell Type: Zea mays (corn), Assay Type: Gene mutation, Assay Code: ZEM-, Evaluation Type: Evaluation A (Pre-1980)) is “inactive; negative”.

Regarding `ClCC1OC(CCl)OC(CCl)O1` (stereo unspecified), under setting [3], the mutagenic call is “active; positive”. With `NC(=O)NO`, the mutagenic call is, setting by setting: (Species/Cell Type: Chinese hamster lung (V79) cells, Assay Type: Forward gene mutation at the HPRT or ouabain locus, Assay Code: V79-, Evaluation Type: Evaluation A (Pre-1980)) “inactive; negative”; under setting [2], “active; positive”; (Species/Cell Type: Human lymphocytes or leukocytes, Assay Type: Chromosome aberrations in vitro, Assay Code: CY7+, Evaluation Type: Evaluation A (Pre-1980)) “active; positive”; (Species/Cell Type: Mammalian polychromatic erythrocytes, Assay Type: Micronucleus test, chromosome aberrations, Assay Code: MNTT, Evaluation Type: Evaluation A (Pre-1980)) “no conclusion”; (Species/Cell Type: Mouse (BALB/c-3T3) cells, Assay Type: Cell transformation, Assay Code: CTB-, Evaluation Type: Evaluation A (Pre-1980)) “inactive; negative”; (Species/Cell Type: Mouse, Sex: Male, Assay Type: Sperm morphology, Assay Code: SPI+, Evaluation Type: Evaluation A (Pre-1980)) “active; positive”. Also, the mutagenic call runs as follows: under setting [4], “active; positive”; (Species/Cell Type: Nonhuman, Assay Type: Sister-chromatid exchange (SCE) in vitro, Assay Code: SC2-, Evaluation Type: Evaluation A (Pre-1980)) “inactive; negative”; (Species/Cell Type: Saccharomyces cerevisiae, Assay Type: Mitotic recombination or gene conversion, Assay Code: YEC+, Evaluation Type: Evaluation A (Pre-1980)) “active; positive”; (Species/Cell Type: Syrian hamster embryo (SA7/SHE) cells, Assay Type: Cell transformation, viral enhanced, Assay Code: CT7+, Evaluation Type: Evaluation A (Pre-1980)) “active; positive”; (Species/Cell Type: Tradescantia species, Assay Type: Chromosome aberrations, Assay Code: TRC+, Evaluation Type: Evaluation A (Pre-1980)) “active; positive”. For the same molecule, the call (Species/Cell Type: Nonhuman, Assay Code: CCGT, Evaluation Type: Evaluation A (Pre-1980)) was “no conclusion”.

Consider `c1ccc2c(c1)[nH]c1cnccc12`, for which the mutagenic call was “active; positive” (Species/Cell Type: Human lymphocytes, Assay Type: Sister-chromatid exchange (SCE) in vitro, Assay Code: SCL+D, Dose Response: With dose response, Evaluation Type: Evaluation B (Post-1980)); “no conclusion” under setting [5]; “active; positive” under setting [6]; “no conclusion” under setting [7].

Consider `CCC(Br)(CC)C(=O)NC(N)=O`, for which the call (Species/Cell Type: Nonhuman, Assay Code: CCG-, Evaluation Type: Evaluation A (Pre-1980)) was “inactive; negative”. As to `N#CC(Cl)Cl`, the mutagenic call (Species/Cell Type: Saccharomyces cerevisiae, Assay Type: Mitotic recombination or gene conversion, Assay Code: YEH+, Evaluation Type: Evaluation A (Pre-1980)) was “active; positive” and the mutagenic call under setting [3] was “active; positive”. With `[Hg][c]1ccccc1`, the mutagenic call (Species/Cell Type: Allium cepa, Assay Type: Chromosome aberrations, Assay Code: ALC+D, Dose Response: With dose response, Evaluation Type: Evaluation A (Pre-1980)) is “active; positive”.

With `COc1cc2c(c3oc(=O)c4c(c13)CC[C@@H]4O)[C@@H]1C=CO[C@@H]1O2`, the mutagenic call by setting is: (Species/Cell Type: Human diploid fibroblasts, Assay Type: Unscheduled DNA synthesis (UDS) in vitro, DNA effects, Assay Code: UDH+D, Dose Response: With dose response, Evaluation Type: Evaluation A (Pre-1980)) “active; positive”; under setting [1], “active; positive”. On to `CC[C@H]1OC(=O)[C@H](C)[C@@H](O[C@H]2C[C@@](C)(OC)[C@@H](O)[C@H](C)O2)[C@H](C)[C@@H](O[C@@H]2O[C@H](C)C[C@H](N(C)C)[C@H]2O)[C@](C)(O)C[C@@H](C)C(=O)[C@H](C)[C@@H](O)[C@]1(C)O`, for which, under “Species/Cell Type: Escherichia coli polA (W3119 vs P3478), Assay Type: Rec-assay, DNA effects (bacterial DNA repair), Assay Code: RE1-, Evaluation Type: Evaluation A (Pre-1980)”, the mutagenic call was “inactive; negative”. `CC(C)N(C(=O)SC/C(Cl)=C/Cl)C(C)C`: the mutagenic call is “active; positive” under setting [8] and “active; positive” under setting [1]. For the molecule `NC(=S)NCCNC(N)=S`, the mutagenic call (Species/Cell Type: Salmonella typhimurium, Assay Type: Forward and reverse gene mutation, host-mediated assay, Assay Code: HMA+, Evaluation Type: Evaluation A (Pre-1980)) is “active; positive”.

For the molecule `Cc1ccc2c(c1)cc1ccccc1[n+]2C`, where the note is “Species/Cell Type: Saccharomyces cerevisiae, Assay Type: Forward gene mutation, Assay Code: YEFT, Evaluation Type: Evaluation A (Pre-1980)”, the mutagenic call is recorded as “no conclusion”. `Brc1ccc(C2CO2)cc1` (stereo unspecified): the mutagenic call (Species/Cell Type: Escherichia coli WP2 UVRA, Assay Type: Tryptophan reverse gene mutation, Assay Code: WPU+D, Dose Response: With dose response, Evaluation Type: Evaluation A (Pre-1980)) is “active; positive”.

With `O=C(O)CNc1ccc(O)cc1`, the mutagenic call (Species/Cell Type: Allium cepa, Assay Type: Chromosome aberrations, Assay Code: ALC+, Evaluation Type: Evaluation A (Pre-1980)) was “active; positive”. For the molecule `[2H]C1([2H])CNP(=O)(N(CCCl)CCCl)OC1` (stereo unspecified), the mutagenic call under setting [8] is “active; positive”. With `CSC\C=C(C)/C=C\C=C(C)/C=C\C1=C(C)CCCC1(C)C`, under setting [6], the mutagenic call was “active; positive”.

As to `Cc1c2ccccc2c(C2CO2)c2ccccc12` (stereo unspecified), the mutagenic call under setting [3] is “active; positive”. Turning to `O=S(=O)(O)c1ccc(N=C2C=CC(=C(c3ccc(Nc4ccc(S(=O)(=O)O)cc4)cc3)c3ccc(Nc4ccc(S(=O)(=O)O)cc4)cc3)C=C2)cc1`, the mutagenic call (Species/Cell Type: Bacillus subtilis (H17 vs M45), Assay Type: Rec-assay, spot test, DNA effects (bacterial DNA repair), Assay Code: REWT, Evaluation Type: Evaluation A (Pre-1980)) is “no conclusion”. In the case of `CCOP(=O)(OCC)Oc1cc(C)nc(C(C)C)n1`, the mutagenic call under setting [4] is “active; positive”. Take `OCCc1ccccc1`: the mutagenic call is reported as “no conclusion” under setting [5] and “no conclusion” under setting [7].

Consider `COC(C)C(O)(C(=O)OCC1=CC[N+]2([O-])CC[C@H](O)[C@H]12)C(C)C` (stereo partly specified), for which, under “Species/Cell Type: Drosophila melanogaster, Assay Type: Sex-linked recessive lethal gene mutation, Assay Code: SRL+, Evaluation Type: Evaluation A (Pre-1980)”, the mutagenic call is “active; positive”. Consider `OCCN1CCN(C2Cc3cc(Cl)ccc3Sc3ccccc32)CC1` (stereo unspecified), for which, for the setting “Species/Cell Type: Rodents, Sex: Male, Assay Type: Dominant lethal test, Assay Code: DLT-, Evaluation Type: Evaluation A (Pre-1980)”, the mutagenic call was “inactive; negative”.

For the molecule `Nc1ccc2c(ccc3ccccc32)n1`, the mutagenic call under setting [1] is “active; positive”. In the case of `O=C(NO)c1ccccc1`, the mutagenic call under setting [3] was “active; positive”. For the molecule `Cc1ccc2cc3c4c(ccc3c3c2c1CC3)C(O)C(O)C=C4` (stereo unspecified), the mutagenic call by setting is: (Species/Cell Type: Chinese hamster lung (V79) cells, Assay Type: Forward gene mutation at the HPRT or ouabain locus, Assay Code: V79+, Evaluation Type: Evaluation A (Pre-1980)) “active; positive”; under setting [1], “active; positive”. The call (Species/Cell Type: Nonhuman, Assay Code: CCG+L, Evaluation Type: Evaluation A (Pre-1980)) was “active; positive”. `O=C=Nc1ccc2ccccc2c1`: the mutagenic call under setting [4] is “active; positive”.
